This is an account of results in US20160207906A1, “NOVEL 2,6-DIAMINOPYRIMIDINE DERIVATIVE” (CARNA BIOSCIENCES, INC., priority 2013, published 2016).

Entries after “also recorded” stand apart in the source; their conditions may differ.

T1 sequence (Q06187 whole entry): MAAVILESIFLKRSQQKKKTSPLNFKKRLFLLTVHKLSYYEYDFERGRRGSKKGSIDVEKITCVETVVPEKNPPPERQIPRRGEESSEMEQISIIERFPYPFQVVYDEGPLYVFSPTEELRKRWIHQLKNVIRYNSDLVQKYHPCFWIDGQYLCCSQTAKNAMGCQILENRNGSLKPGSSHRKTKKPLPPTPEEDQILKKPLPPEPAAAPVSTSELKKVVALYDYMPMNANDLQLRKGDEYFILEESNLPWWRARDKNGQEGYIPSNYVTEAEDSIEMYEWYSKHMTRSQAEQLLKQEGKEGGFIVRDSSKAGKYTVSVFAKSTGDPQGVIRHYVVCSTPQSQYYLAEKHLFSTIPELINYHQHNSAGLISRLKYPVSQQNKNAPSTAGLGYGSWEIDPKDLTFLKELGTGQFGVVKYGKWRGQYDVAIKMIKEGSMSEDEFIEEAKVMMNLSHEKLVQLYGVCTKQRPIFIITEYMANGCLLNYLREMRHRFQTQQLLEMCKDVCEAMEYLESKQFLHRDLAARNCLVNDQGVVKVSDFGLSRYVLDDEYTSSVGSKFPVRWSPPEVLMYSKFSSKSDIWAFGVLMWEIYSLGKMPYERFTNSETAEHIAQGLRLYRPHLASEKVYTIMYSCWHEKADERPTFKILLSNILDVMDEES

The first assay has as its target T1, Dephosphorylated BTK (Homo sapiens, UniProt Q06187).
T1 construct: purchased Carna Biosciences, Inc
Put plainly: BTK activity inhibition test (mobility shift assay, dephosphorylated BTK). The settings on record: 200 μM ATP in substrate mixture, 1 hour at room temperature. Format: biochemical. The procedure: Dephosphorylated BTK was obtained by adding A protein phosphatase (manufactured by New England BioLabs Inc., Code No. P0753S) and MnCl2 at 10 U/μg and 2 mM, respectively to biotinylated BTK protein BTN-BTK (manufactured by Carna Biosciences, Inc.) enzyme solution, reacting the mixture at 4° C. overnight, and removing of A protein phosphatase by anti DYKDDDDK-tag antibody agarose gel chromatography, followed by buffer exchange using a 10DG Desalting Column.
The kinase activity was measured using QuickScout Screening Assist (trade mark) MSA (commercially available kit manufactured by Carna Biosciences, Inc.) by mobility shift assay (MSA) method. The substrate of the kinase reaction was an FITC-labeled SRCtide peptide included in the kit. An assay buffer [20 mM HEPES, 0.01% Triton X-100 (Trade mark), 2 mM dithiothreitol, pH7.5] was used and adjusted at 4 μM substrate, 20 mM MgCl2 and 200 μM ATP to obtain a substrate mixture solution. The enzyme solution was also prepared by diluting the dephosphorylated BTK to 0.6 nM using the assay buffer. The 10 mM solution of the test compound in DMSO was further diluted with DMSO to 10 levels of the concentration (0.00003 mM, 0.0001 mM, 0.0003 mM, 0.001 mM, 0.003 mM, 0.01 mM, 0.03 mM, 0.1 mM, 0.3 mM, 1 mM), each of which was subjected to a 25-fold dilution with the assay buffer to obtain the drug solutions (4% DMSO solutions), 5 μL of the drug solution or a control solution (4% DMSO-assay buffer), 5 μL of the substrate mixture solution, and 10 μL of the enzyme solution were mixed in the wells of a polypropylene 384-well plate and allowed to react at room temperature for 1 hour, and then quenched by adding 60 μL of the termination buffer included in the kit. Subsequently, the quantities of the substrates (S) and the phosphorylated substrate (P) in the reaction solution were measured using LabChip EZ Reader II system (manufactured by Caliper Life Sciences) according to the protocol of the assay kit.
The heights of the peaks of the isolated substrate and the phosphorylated substrate were represented as S and P, respectively, and a blank which contained the assay buffer instead of the enzyme solution was also measured.
The inhibition rate (%) of the test compound was calculated according to the following equation.
Inhibition rate (%)=(1−(C−A)/(B−A))×100
wherein, A, B and C represent P/(P+S) of the blank well, P/(P+S) of the control well and P/(P+S) of the compound-containing well, respectively.
The IC50 value was calculated via a regression analysis of the inhibition rate (%) and the test compound concentration (logarithmic value).
Usually IC50 stands for the point on the concentration scale where inhibition reaches its midpoint. Turning to `Nc1cc(-c2cccc(-n3ccc4cc(C5CC5)cc(F)c4c3=O)c2CO)nc(Nc2ccc(N3CCOCC3)cc2)n1` [Example 1, 2-(3-{6-Amino-2-[(4-morpholinophenyl)amino]pyrimidin-4-yl}-2-(hydroxymethyl)phenyl)-6-cyclopropyl-8-fluoroisoquinolin-1 (2H)-one], the IC50 came to 2.1 nM.

Regarding `Cn1cc(Nc2nc(N)cc(-c3cccc(-n4ccc5cc(C6CC6)cc(F)c5c4=O)c3CO)n2)cn1` [Example 2, 2-(3-{6-Amino-2-[ (1-methyl-1H-pyrazol-4-yl)amino]pyrimidin-4-yl}-2-(hydroxymethyl)phenyl)-6-cyclopropyl-8-fluoroisoquinolin-1 (2H)-one], the IC50 came out at 6.4 nM. The same measure, in the same setting: with `Cn1cc(Nc2nc(N)cc(-c3cccc(-n4ccc5cc(C6CC6)cc(F)c5c4=O)c3CO)n2)cc1C#N` [Example 5, 4-({4-Amino-6-[3-(6-cyclo-propyl-8-fluoro-1-oxoiso-quinolin-2(1H)-yl)-2-(hydroxymethyl)phenyl]pyrimidin-2-yl}amino)-1-methyl-1H-pyrrole-2-carbonitrile] the figure was 1.7 nM. Same read-out and setting: with `Cn1cc(Nc2nc(N)cc(-c3cccc(-n4ccc5cc(C(C)(C)C)cc(F)c5c4=O)c3CO)n2)cn1` [Example 7, 2-(3-{6-Amino-2-[(1-methyl-1H-pyrazol-4-yl)amino]pyrimidin-4-yl}-2-(hydroxymethyl)phenyl)-6-(tert-butyl)-8-fluoro-isoquinolin-1(2H)-one] the figure was 0.3 nM; with `Nc1cc(-c2cccc(-n3ccc4cc(C5CC5)cc(F)c4c3=O)c2CO)nc(Nc2cnn(CC3CC3)c2)n1` [Example 8, 2-[3-(6-Amino-2-{[1-(cyclopropylmethyl)-1H-pyrazol-4-yl]amino}pyrimidin-4-yl)-2-(hydroxymethyl)phenyl]-6-cyclopropyl-8-fluoroisoquinolin-1(2H)-one], 0.3 nM; with `Nc1cc(-c2cccc(-n3ccc4cc(C5CC5)cc(F)c4c3=O)c2CO)nc(Nc2cnn(C3CC3)c2)n1` [Example 9, 2-(3-{6-Amino-2-[(1-cyclopropyl-1H-pyrazol-4-yl)amino]pyrimidin-4-yl}-2-(hydroxymethyl)phenyl)-6-cyclopropyl-8-fluoroisoquinolin-1(2H)-one], 0.3 nM. The same measure, in the same setting: for `N#Cc1cc(Nc2nc(N)cc(-c3cccc(-n4ccc5cc(C6CC6)cc(F)c5c4=O)c3CO)n2)cn1C1CC1` [Example 10, 4-({4-Amino-6-[3-(6-cyclo-propyl-8-fluoro-1-oxoiso-quinolin-2(1H)-yl)-2-(hydroxymethyl)phenyl]pyrimidin-2-yl}amino)-1-cyclopropyl-1H-pyrrole-2-carbonitrile] the value was 2.1 nM. With `CN1CCN(c2ccc(Nc3nc(N)cc(-c4cccc(-n5ccc6cc(C7CC7)cc(F)c6c5=O)c4CO)n3)cc2)CC1` [Example 15, 2-[3-(6-Amino-2-{[4-(4-methylpiperazin-1-yl)phenyl]amino}pyrimidin-4-yl)-2-(hydroxymethyl)phenyl]-6-cyclopropyl-8-fluoroisoquinolin-1(2H)-one], the IC50 stood at 0.4 nM. Take `CC(=O)c1cc(Nc2nc(N)cc(-c3cccc(-n4ccc5cc(C6CC6)cc(F)c5c4=O)c3CO)n2)cn1C` [Example 17, 2-(3-{2-[(5-Acetyl-1-methyl-1H-pyrrol-3-yl)amino]-6-aminopyrimidin-4-yl}-2-(hydroxymethyl)phenyl)-6-cyclopropyl-8-fluoroiso-quinolin-1(2H)-one]: the IC50 was found to be 0.8 nM. `Nc1cc(-c2cccc(-n3ccc4cc(C5CC5)cc(F)c4c3=O)c2CO)nc(Nc2cn[nH]c2)n1` [Example 18, 2-(3-{2-[(1H-Pyrazol-4-yl)amino]-6-aminopyrimidin-4-yl}-2-(hydroxymethyl)phenyl)-6-cyclopropyl-8-fluoroiso-quinolin-1(2H)-one]: the IC50 is 0.6 nM. Same read-out and setting: for `Cn1cc(Nc2nc(N)cc(-c3cccc(-n4ncc5cc(C6CC6)cc(F)c5c4=O)c3CO)n2)cn1` [Example 20, 2-(3-{6-Amino-2-[(1-methyl-1H-pyrazol-4-yl)amino]pyrimidin-4-yl}-2-(hydroxy-methyl)phenyl)-6-cyclopropyl-8-fluorophthalazin-1(2H)-one] the value was 0.6 nM; for `Nc1cc(-c2cccc(-n3ncc4cc(C5CC5)cc(F)c4c3=O)c2CO)nc(Nc2cnn(C3CC3)c2)n1` [Example 21, 2-(3-{6-Amino-2-[(1-cyclo-propyl-1H-pyrazol-4-yl)amino]pyrimidin-4-yl}-2-(hydroxymethyl)phenyl)-6-cyclopropyl-8-fluoro-phthalazin-1(2H)-one], 0.4 nM.

Take `Cn1cc(Nc2nc(N)cc(-c3ccnc(-n4ccc5cc(C6CC6)cc(F)c5c4=O)c3CO)n2)cn1` [Example 22, 2-(4-{6-Amino-2-[(1-methyl-1H-pyrazol-4-yl)amino]pyrimidin-4-yl}-3-(hydroxy-methyl)pyridin-2-yl)-6-cyclo-propyl-8-fluoroisoquinolin-1(2H)-one]: the IC50 was 0.8 nM.

With `Cn1cc(Nc2nc(N)cc(-c3cccc(-n4ncc5cc(C6CC6)cc(F)c5c4=O)c3CO)n2)cc1C#N` [Example 24, 4-({4-Amino-6-[3-(6-cyclo-propyl-8-fluoro-1-oxo-phthalazin-2(1H)-yl)-2-(hydroxymethyl)phenyl]pyrimidin-2-yl}amino)-1-methyl-1H-pyrrole-2-carbonitrile], the IC50 came to 0.4 nM.

In the case of `Cn1cc(Nc2nc(N)cc(-c3cccc(-n4ccc5cc(C6(C)CC6)cc(F)c5c4=O)c3CO)n2)cn1` [Example 25, 2-(3-{6-Amino-2-[(1-methyl-1H-pyrazol-4-yl)amino]pyrimidin-4-yl}-2-(hydroxy-methyl)phenyl)-8-fluoro-6-(1-methylcyclopropyl) isoquinolin-1(2H)-one], the IC50 worked out at 0.2 nM.

In another assay the test system is anti-IgM antibody BCR stimulation-induced intracellular calcium influx in Ramos cells. Put plainly: Inhibition test on the change of Ramos intracellular calcium ion. Format: cell-based. The settings on record: Fluo-8NW, anti-IgM antibody 2.0 μg/mL. The procedure:
The intracellular BTK inhibition by the compounds of the present invention was verified by measuring the effects of the compounds of the present invention on “anti-IgM antibody BCR stimulation-induced intracellular calcium influx”.
One day before measurement, the Ramos cells were cultured as being suspended again at a cell density of 1.0×10^6 cells/mL in a fresh growth medium (growth medium as used in Test Example 2), and the cells were recovered next day by centrifugation and washed with RPMI-1640 medium supplemented with 5% penicillin-streptomycin (Nacalai Tesque, Inc.) (Medium 1). These cells were suspended again at a cell density of 2.0×10^6 cells/mL in RPMI-1640 medium supplemented with 1% Ultra Low IgG FBS (GIBCO, #16250) and 5% penicillin-streptomycin (Nacalai Tesque, Inc.) (Medium 2), and thereafter each 100 μL of the cell suspension was added to each well of a Poly Lysine-coated microplate (BD BioCoat™, #356692), centrifuged (700 rpm, 3 minutes) and then incubated for 1 hour in a 5% CO2 incubator at 37° C. […]
The Ramos intracellular calcium ion concentration was measured as a fluorescent intensity of the calcium indicator Fluo-8NW using a microplate reader (SynergyH1) (Ex/Em=490/525 nm). […]
For `Nc1cc(-c2cccc(-n3ccc4cc(C5CC5)cc(F)c4c3=O)c2CO)nc(Nc2ccc(N3CCOCC3)cc2)n1` [Example 1, 2-(3-{6-Amino-2-[(4-morpholinophenyl)amino]pyrimidin-4-yl}-2-(hydroxymethyl)phenyl)-6-cyclopropyl-8-fluoroisoquinolin-1 (2H)-one], the “inhibition of anti-IgM antibody BCR stimulation-induced intracellular calcium ion variation (FIG. 1)” value is “in a concentration-dependent manner from a low concentration; also recorded: inhibit the flux of calcium into the cells”. On the same count and under the same terms, for `Cn1cc(Nc2nc(N)cc(-c3cccc(-n4ccc5cc(C6CC6)cc(F)c5c4=O)c3CO)n2)cn1` [Example 2, 2-(3-{6-Amino-2-[ (1-methyl-1H-pyrazol-4-yl)amino]pyrimidin-4-yl}-2-(hydroxymethyl)phenyl)-6-cyclopropyl-8-fluoroisoquinolin-1 (2H)-one] the value was “in a concentration-dependent manner from a low concentration; also recorded: inhibit the flux of calcium into the cells”.
